ChEMBL document CHEMBL5136974, “VHL-based PROTACs as potential therapeutic agents: Recent progress and perspectives” (Eur J Med Chem, 2022)

Legend:
[1] = molecular target: T1, von Hippel-Lindau disease tumor suppressor/Cyclin-dependent kinase 6 (Homo sapiens, UniProt Q00534+P40337); assay: Protac activity at VHL/CDK6 in human MM1.S cells assessed as degradation of CDK6 measured after 16 hrs; type: cell-based
[2] = molecular target: von Hippel-Lindau disease tumor suppressor/Cyclin-dependent kinase 4 (Homo sapiens, UniProt P11802+P40337); assay: Protac activity at VHL/CDK4 in human MM1.S cells assessed as degradation of CDK4 measured after 16 hrs; type: cell-based
[3] = molecular target: T1, von Hippel-Lindau disease tumor suppressor/Cyclin-dependent kinase 6; assay: Protac activity at VHL/CDK6 in human MM1.S cells assessed as degradation of CDK6 at 100 nM relative to control; type: cell-based
[4] = molecular target: Polycomb protein EED (Homo sapiens, UniProt O75530); assay: Binding affinity to EED (unknown origin) assessed as dissociation constant
[5] = Inhibition of PRC2 (unknown origin); set-up: species or system Homo sapiens
[6] = molecular target: ALK tyrosine kinase receptor (Homo sapiens, UniProt Q9UM73); assay: Inhibition of ALK (unknown origin) incubated for 1 hr by HTRF assay
[7] = molecular target: NPM/ALK (Nucleophosmin/ALK tyrosine kinase receptor) (Homo sapiens) (UniProt Q9UM73+P06748); assay: Inhibition of NPM-ALK in human SU-DHL-1 cells at […] relative to control; type: cell-based
[8] = molecular target: von Hippel-Lindau disease tumor suppressor/Oxysterols receptor LXR-beta (Homo sapiens, UniProt P40337+P55055); assay: Protac activity at VHL/LXR (unknown origin) by TR-FRET assay
[9] = molecular target: Dihydroorotate dehydrogenase (quinone), mitochondrial (Homo sapiens, UniProt Q02127); assay: Inhibition of DHODH (unknown origin)
[10] = system: HT-29; assay: Antiproliferative activity against human HT-29 cells; type: functional, cell-based
[11] = system: SK-MEL-28; assay: Antiproliferative activity against human SK-MEL-28 cells; type: functional, cell-based
[12] = molecular target: T2, von Hippel-Lindau disease tumor suppressor/Epidermal growth factor receptor (Homo sapiens, UniProt P00533+P40337); assay: Protac activity against VHL/EGFR deletion 19 mutant in human HCC827 cells; type: cell-based
[13] = system: von Hippel-Lindau disease tumor suppressor/Epidermal growth factor receptor (Homo sapiens), P00533+P40337 [UNDEFINED MUTATION]; assay: Protac activity against VHL/EGFR deletion 19 mutant in human HCC827 cells relative to control; type: cell-based
[14] = molecular target: von Hippel-Lindau disease tumor suppressor/Epidermal growth factor receptor (Homo sapiens, UniProt P00533+P40337, L858R); assay: Protac activity against VHL/EGFR L858R mutant in human […] cells; type: cell-based
[15] = system: von Hippel-Lindau disease tumor suppressor/Epidermal growth factor receptor (Homo sapiens), P00533+P40337 [L858R]; assay: Protac activity against VHL/EGFR L858R mutant in human […] cells relative to control; type: cell-based
[16] = molecular target: von Hippel-Lindau disease tumor suppressor/GTPase KRas (Homo sapiens, UniProt P01116+P40337, G12C); assay: Protac activity at VHL/KRAS G12C mutant (unknown origin); type: protein assay
[17] = molecular target: T3, von Hippel-Lindau disease tumor suppressor/Estrogen receptor (Homo sapiens, UniProt P03372+P40337); assay: Protac activity at VHL/ER (unknown origin) assessed as degradation of ER
Target sequence in this assay (P03372 whole entry): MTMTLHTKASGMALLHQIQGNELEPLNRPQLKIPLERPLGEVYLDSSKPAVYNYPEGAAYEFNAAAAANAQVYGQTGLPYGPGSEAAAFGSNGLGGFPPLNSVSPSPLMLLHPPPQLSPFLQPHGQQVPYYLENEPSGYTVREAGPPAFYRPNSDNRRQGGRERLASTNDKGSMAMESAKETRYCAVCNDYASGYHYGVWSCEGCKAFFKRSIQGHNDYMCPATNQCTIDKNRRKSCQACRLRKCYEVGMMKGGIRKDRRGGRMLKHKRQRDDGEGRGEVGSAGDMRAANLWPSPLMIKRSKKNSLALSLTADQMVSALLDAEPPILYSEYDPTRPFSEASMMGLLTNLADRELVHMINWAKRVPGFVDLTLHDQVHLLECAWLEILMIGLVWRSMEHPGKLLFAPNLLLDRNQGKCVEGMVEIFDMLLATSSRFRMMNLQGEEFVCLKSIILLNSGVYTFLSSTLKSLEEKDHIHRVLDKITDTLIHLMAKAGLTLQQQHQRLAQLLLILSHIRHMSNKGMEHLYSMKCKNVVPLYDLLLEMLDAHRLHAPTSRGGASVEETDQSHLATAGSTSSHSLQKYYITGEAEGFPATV
Target sequence in this assay (P40337 whole entry): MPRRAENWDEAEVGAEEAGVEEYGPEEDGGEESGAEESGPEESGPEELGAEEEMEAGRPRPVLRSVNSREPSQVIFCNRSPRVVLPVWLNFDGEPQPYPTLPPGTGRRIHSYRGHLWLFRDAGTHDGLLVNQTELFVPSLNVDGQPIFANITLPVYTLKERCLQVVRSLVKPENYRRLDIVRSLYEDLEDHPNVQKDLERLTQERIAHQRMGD

[18] = molecular target: T3, von Hippel-Lindau disease tumor suppressor/Estrogen receptor; assay: Protac activity at VHL/ER (unknown origin) assessed as degradation of ER relative to control
Target sequence in this assay (P03372 whole entry, looked up): as the sequence (P03372 whole entry) above
Target sequence in this assay (P40337 whole entry, looked up): as the sequence (P40337 whole entry) above

[19] = system: MCF7; assay: Antiproliferative activity against human MCF7 cells; type: functional, cell-based
[20] = system: MCF7; assay: Antiproliferative activity against human MCF7 cells relative to control; type: functional
[21] = molecular target: T4, Receptor-interacting serine/threonine-protein kinase 2 (Homo sapiens, UniProt O43353); assay: Degradation of RIPK2 (unknown origin)
[22] = molecular target: T4, Receptor-interacting serine/threonine-protein kinase 2; assay: Degradation of RIPK2 (unknown origin) at more than 10 nM relative to control
[23] = molecular target: von Hippel-Lindau disease tumor suppressor/Focal adhesion kinase 1 (Homo sapiens) (UniProt Q05397+P40337); assay: Protac activity at VHL/FAK in serum-free treated human PC-3 cells assessed as degradation of FAK measured after 24 hrs relative to control; type: cell-based
[24] = molecular target: T2, von Hippel-Lindau disease tumor suppressor/Epidermal growth factor receptor; assay: Protac activity against VHL/EGFR in human OVCAR-8 cells assessed as degradation of EGFR; type: cell-based
[25] = molecular target: T2, von Hippel-Lindau disease tumor suppressor/Epidermal growth factor receptor; assay: Protac activity against VHL/EGFR in human OVCAR-8 cells assessed as degradation of EGFR relative to control; type: cell-based
[26] = system: SK-BR-3; assay: Antiproliferative activity against human SK-BR-3 cells; type: functional, cell-based
[27] = system: von Hippel-Lindau disease tumor suppressor/Epidermal growth factor receptor (Homo sapiens), P00533+P40337 [L858R,T790M]; assay: Protac activity against VHL/geftinib-resistant EGFR L858R/T790M double mutant in human H1975 cells relative to control; type: cell-based; details: NCI-H1975
[28] = molecular target: T5, von Hippel-Lindau disease tumor suppressor/Androgen receptor (Homo sapiens, UniProt P10275+P40337); assay: Protac activity at VHL/androgen receptor (unknown origin) assessed as degradation of androgen receptor; type: protein assay
[29] = molecular target: T5, von Hippel-Lindau disease tumor suppressor/Androgen receptor; assay: Protac activity at VHL/full length androgen receptor (unknown origin) assessed as degradation of androgen receptor
[30] = system: MV4-11; assay: Antiproliferative activity against human MV4-11 cells; type: functional, cell-based
[31] = system: MOLM-14; assay: Antiproliferative activity against human MOLM-14 cells; type: functional, cell-based
[32] = molecular target: T6, von Hippel-Lindau disease tumor suppressor/Serine/threonine-protein kinase Sgk3 (Homo sapiens) (UniProt Q96BR1+P40337); assay: Protac activity at VHL/SGK3 in human HEK293 cells at […] measured within 2 hrs relative to control; type: cell-based
[33] = molecular target: T6, von Hippel-Lindau disease tumor suppressor/Serine/threonine-protein kinase Sgk3 (Homo sapiens); assay: Protac activity at VHL/SGK3 in human HEK293 cells at […] measured within 8 hrs relative to control; type: cell-based
[34] = molecular target: von Hippel-Lindau disease tumor suppressor/3-hydroxy-3-methylglutaryl-coenzyme A reductase (Homo sapiens, UniProt P04035+P40337); assay: Protac activity at VHL/HMGCR in Insig-silenced human HepG2 cells; type: cell-based
[35] = Inhibition of BRAF mutant (unknown origin); set-up: species or system Homo sapiens
[36] = molecular target: Serine/threonine-protein kinase B-raf (Homo sapiens) (UniProt P15056); assay: Inhibition of BRAF mutant (unknown origin) relative to control

Sequence of von Hippel-Lindau disease tumor suppressor/Oxysterols receptor LXR-beta (P55055 whole entry): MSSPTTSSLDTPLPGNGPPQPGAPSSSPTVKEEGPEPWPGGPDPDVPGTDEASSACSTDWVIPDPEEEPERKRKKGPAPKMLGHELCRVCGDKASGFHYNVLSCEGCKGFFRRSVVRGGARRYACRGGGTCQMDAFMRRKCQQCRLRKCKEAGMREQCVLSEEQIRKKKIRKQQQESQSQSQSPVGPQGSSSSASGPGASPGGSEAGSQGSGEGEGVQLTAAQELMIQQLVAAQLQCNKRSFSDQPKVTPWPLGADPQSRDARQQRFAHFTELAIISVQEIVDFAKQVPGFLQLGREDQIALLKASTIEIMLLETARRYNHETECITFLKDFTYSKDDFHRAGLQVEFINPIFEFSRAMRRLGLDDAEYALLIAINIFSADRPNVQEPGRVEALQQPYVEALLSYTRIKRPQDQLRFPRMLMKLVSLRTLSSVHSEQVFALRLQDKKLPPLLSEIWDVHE
Sequence of von Hippel-Lindau disease tumor suppressor/Oxysterols receptor LXR-beta (P40337 whole entry): as the sequence (P40337 whole entry) above
T4 sequence (O43353 whole entry): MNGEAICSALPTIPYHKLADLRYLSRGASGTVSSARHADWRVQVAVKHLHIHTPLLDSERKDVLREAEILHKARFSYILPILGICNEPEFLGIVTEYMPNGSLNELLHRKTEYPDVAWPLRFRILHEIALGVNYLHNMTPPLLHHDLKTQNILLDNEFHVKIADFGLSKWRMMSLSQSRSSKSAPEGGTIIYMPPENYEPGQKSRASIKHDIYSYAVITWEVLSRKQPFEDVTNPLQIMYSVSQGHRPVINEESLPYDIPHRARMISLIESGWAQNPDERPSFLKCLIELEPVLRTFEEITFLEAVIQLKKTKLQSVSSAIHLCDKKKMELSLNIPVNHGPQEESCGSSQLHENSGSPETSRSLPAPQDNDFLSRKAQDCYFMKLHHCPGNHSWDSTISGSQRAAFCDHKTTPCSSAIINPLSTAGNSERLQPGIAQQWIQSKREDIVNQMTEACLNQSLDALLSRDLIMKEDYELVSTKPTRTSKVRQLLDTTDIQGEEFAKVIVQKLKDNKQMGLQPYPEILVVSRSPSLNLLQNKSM
Sequence of Polycomb protein EED (O75530 whole entry): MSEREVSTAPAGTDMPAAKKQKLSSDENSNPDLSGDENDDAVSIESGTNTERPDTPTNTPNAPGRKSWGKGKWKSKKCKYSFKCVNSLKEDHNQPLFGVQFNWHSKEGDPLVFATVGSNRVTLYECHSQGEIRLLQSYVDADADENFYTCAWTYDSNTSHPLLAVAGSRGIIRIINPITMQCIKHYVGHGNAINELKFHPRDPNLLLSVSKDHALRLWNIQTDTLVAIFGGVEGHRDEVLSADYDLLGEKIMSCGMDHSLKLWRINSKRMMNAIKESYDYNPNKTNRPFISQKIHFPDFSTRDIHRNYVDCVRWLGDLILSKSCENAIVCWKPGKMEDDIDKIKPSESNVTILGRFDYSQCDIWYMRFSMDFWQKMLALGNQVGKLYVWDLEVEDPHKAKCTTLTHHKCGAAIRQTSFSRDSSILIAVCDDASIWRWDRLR
T5 sequence (P10275 whole entry): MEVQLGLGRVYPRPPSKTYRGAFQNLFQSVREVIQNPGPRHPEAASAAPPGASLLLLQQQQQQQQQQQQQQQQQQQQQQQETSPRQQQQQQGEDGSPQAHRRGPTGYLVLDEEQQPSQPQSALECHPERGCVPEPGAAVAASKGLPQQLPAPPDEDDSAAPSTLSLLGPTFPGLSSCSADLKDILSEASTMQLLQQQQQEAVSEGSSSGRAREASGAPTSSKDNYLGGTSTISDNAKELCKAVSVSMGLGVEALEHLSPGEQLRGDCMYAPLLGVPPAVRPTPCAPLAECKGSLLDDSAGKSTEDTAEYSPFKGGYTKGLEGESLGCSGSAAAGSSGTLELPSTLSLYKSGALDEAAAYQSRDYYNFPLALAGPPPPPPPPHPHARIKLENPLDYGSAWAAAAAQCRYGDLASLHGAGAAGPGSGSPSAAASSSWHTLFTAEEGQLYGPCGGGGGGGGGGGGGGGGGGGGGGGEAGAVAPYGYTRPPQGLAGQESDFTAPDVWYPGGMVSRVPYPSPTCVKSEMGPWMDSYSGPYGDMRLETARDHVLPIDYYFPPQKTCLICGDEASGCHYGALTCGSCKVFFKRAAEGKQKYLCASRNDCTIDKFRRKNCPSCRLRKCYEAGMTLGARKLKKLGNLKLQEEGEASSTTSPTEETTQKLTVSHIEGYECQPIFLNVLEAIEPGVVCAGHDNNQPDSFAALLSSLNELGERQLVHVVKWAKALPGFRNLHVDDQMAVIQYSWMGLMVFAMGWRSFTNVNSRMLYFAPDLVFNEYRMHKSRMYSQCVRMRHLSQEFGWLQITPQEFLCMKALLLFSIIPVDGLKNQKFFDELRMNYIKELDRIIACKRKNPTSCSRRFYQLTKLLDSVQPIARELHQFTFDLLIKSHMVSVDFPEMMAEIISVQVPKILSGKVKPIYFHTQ
T5 sequence (P40337 whole entry): as the sequence (P40337 whole entry) above
Sequence of Dihydroorotate dehydrogenase (quinone), mitochondrial (Q02127 whole entry): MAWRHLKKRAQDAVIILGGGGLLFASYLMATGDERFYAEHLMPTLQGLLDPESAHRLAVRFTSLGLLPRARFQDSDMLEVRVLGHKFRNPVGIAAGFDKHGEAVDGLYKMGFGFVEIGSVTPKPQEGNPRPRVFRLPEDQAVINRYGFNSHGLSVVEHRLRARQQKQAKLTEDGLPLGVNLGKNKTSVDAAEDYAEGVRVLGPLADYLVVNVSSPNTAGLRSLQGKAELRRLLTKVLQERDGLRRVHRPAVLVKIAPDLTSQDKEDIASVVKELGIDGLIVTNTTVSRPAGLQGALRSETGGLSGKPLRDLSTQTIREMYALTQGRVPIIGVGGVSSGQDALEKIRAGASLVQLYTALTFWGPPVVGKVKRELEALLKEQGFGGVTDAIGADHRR

Compound: CC(=O)c1c(C)c2cnc(Nc3ccc(N4CCN(CCOCCOCCOc5cc(-c6scnc6C)ccc5CNC(=O)[C@@H]5C[C@@H](O)CN5C(=O)[C@@H](NC(=O)C5(F)CC5)C(C)(C)C)CC4)cn3)nc2n(C2CCCC2)c1=O
- DC50 [1]: 5.1 nM
- DC50 [2]: 20 nM
- Activity [3]: > 95%

Compound: Cc1nc(CCC(=O)NCCCCC(=O)N[C@H](C(=O)N2C[C@H](O)C[C@H]2C(=O)NCc2ccc(-c3scnc3C)cc2)C(C)(C)C)ccc1-c1cnc(NCc2c(F)ccc3c2CCO3)n2cnnc12
- Kd [4]: 1 nM
- pIC50 [5]: 8.1

Compound: Cc1cc(Nc2ncc(Cl)c(Nc3ccccc3S(=O)(=O)C(C)C)n2)c(OC(C)C)cc1C1CCN(C(=O)CCCC(=O)N[C@H](C(=O)N2C[C@H](O)C[C@H]2C(=O)NCc2ccc(-c3scnc3C)cc2)C(C)(C)C)CC1
- IC50 [6]: 7 nM
- inhibition [7]: 90%

Compound: O=C(O)Cc1cccc(OCCCN(Cc2cccc(C(F)(F)F)c2Cl)CC(c2ccccc2)c2ccccc2)c1
- EC50 [8]: 20 nM

Compound: Cc1ncsc1-c1ccc(CNC(=O)[C@@H]2C[C@@H](O)CN2C(=O)[C@@H](NC(=O)OCCOCCOCCOc2ccc(-c3ccc(-c4nc5ccc(F)cc5c(C(=O)O)c4C)cc3)cc2)C(C)(C)C)cc1
- IC50 [9]: 93 nM

Compound: Cc1ncsc1-c1ccc([C@H](C)NC(=O)[C@@H]2C[C@@H](OC(=O)CCCCn3cc(CNC(=O)CC[C@H](NC(=O)c4ccc(NCc5cnc6nc(N)[nH]c(=O)c6n5)cc4)C(=O)O)nn3)CN2C(=O)[C@@H](NC(=O)CCCCCCCCCCNCCCONC(=O)c2ccc(F)c(F)c2Nc2ccc(I)cc2F)C(C)(C)C)cc1
- IC50 [10]: 436 nM
- IC50 [11]: 390 nM

Compound: COc1cc2ncnc(Nc3ccc(F)c(Cl)c3)c2cc1OCCCCCOCCOCCC(=O)N[C@H](C(=O)N1C[C@H](O)C[C@H]1C(=O)NCc1ccc(-c2scnc2C)cc1)C(C)(C)C
- DC50 [12]: 11.7 nM
- Emax [13]: 98.9%
- DC50 [14]: 22.3 nM
- Emax [15]: 96.6%

Compound: C=C(F)C(=O)N1CCN(c2nc(OC[C@@H]3CCCN3CCCOCCC(=O)N[C@H](C(=O)N3C[C@H](O)C[C@H]3C(=O)NCc3ccc(-c4scnc4C)cc3)C(C)(C)C)nc3c2CCN(c2cccc4cccc(Cl)c24)C3)C[C@@H]1CC#N
- DC50 [16]: 250 nM

Compound: Cc1ncsc1-c1ccc([C@H](C)NC(=O)[C@@H]2C[C@@H](O)CN2C(=O)[C@@H](NC(=O)CCCCOc2ccc(CCNC(=O)c3ccc(C(=O)c4c(-c5ccc(O)cc5)sc5cc(O)ccc45)cc3)cc2)C(C)(C)C)cc1
- DC50 [17]: 1.1 nM
- Emax [18]: 98%
- IC50 [19]: 13.2 nM
- Imax [20]: 69%

Compound: Cc1ncsc1-c1ccc(CNC(=O)[C@@H]2C[C@@H](O)CN2C(=O)[C@@H](NC(=O)COCCOCCOCCOCCOCCNC(=O)Cc2cccc(OCCCN(Cc3cccc(C(F)(F)F)c3Cl)CC(c3ccccc3)c3ccccc3)c2)C(C)(C)C)cc1
- EC50 [8]: 31 nM

Compound: Cc1ncsc1-c1ccc(CNC(=O)[C@@H]2C[C@@H](O)CN2C(=O)[C@@H](NC(=O)COCCOCCOCCOCCOc2cc3nccc(Nc4ccc5scnc5c4)c3cc2S(=O)(=O)C(C)(C)C)C(C)(C)C)cc1
- DC50 [21]: 1.4 nM
- Emax [22]: > 95%

Compound: Cc1ncsc1-c1ccc(CNC(=O)[C@@H]2C[C@@H](O)CN2C(=O)[C@@H](NC(=O)CCOCCOc2ccc(Nc3ncc(C(F)(F)F)c(NCc4cccc(N(C)S(C)(=O)=O)c4)n3)cc2)C(C)(C)C)cc1
- Emax [23]: 99%

Compound: Cc1ncsc1-c1ccc(CNC(=O)[C@@H]2C[C@@H](O)CN2C(=O)[C@@H](NC(=O)COCCOCCOc2ccc(-c3ccc4ncnc(Nc5ccc(OCc6cccc(F)c6)c(Cl)c5)c4c3)cc2)C(C)(C)C)cc1
- DC50 [24]: 39.2 nM
- Emax [25]: 97.6%
- IC50 [26]: 102 nM

Compound: Cc1ncsc1-c1ccc(CNC(=O)[C@@H]2C[C@@H](O)CN2C(=O)[C@@H](NC(=O)CCCCCOCCCCOCCCCOc2cc3ncnc(Nc4ccc(F)c(Cl)c4)c3cc2NC(=O)/C=C/CN(C)C)C(C)(C)C)cc1
- Emax [27]: 79.1%

Compound: Cc1ncsc1-c1ccc([C@H](C)NC(=O)[C@@H]2C[C@@H](O)CN2C(=O)[C@@H](NC(=O)CCCCCNC(=O)COc2ccccc2-c2csc(N3CCOCC3)n2)C(C)(C)C)cc1
- DC50 [28]: 370 nM
- DC50 [29]: 2000 nM

Compound: Cc1ncsc1-c1ccc(CNC(=O)[C@@H]2C[C@@H](O)CN2C(=O)[C@@H](NC(=O)CCOCCOCCOc2ccc3c(c2)sc2nc(-c4ccc(NC(=O)Nc5cc(C(C)(C)C)on5)cc4)cn23)C(C)(C)C)cc1
- IC50 [30]: 0.6 nM
- IC50 [31]: 0.6 nM

Compound: Cc1ccc(F)c(S(=O)(=O)Nc2ccc(-c3nc(OC[C@H]4CN(CCCCCCOCCOCCOCC(=O)N[C@H](C(=O)N5C[C@H](O)C[C@H]5C(=O)NCc5ccc(-c6scnc6C)cc5)C(C)(C)C)CCO4)c4cn[nH]c4n3)cc2)c1
- Activity [32]: 50%
- Activity [33]: 80%

Compound: Cc1ncsc1-c1ccc(CNC(=O)[C@@H]2C[C@@H](O)CN2C(=O)[C@@H](NC(=O)CCCCCCCCCCNC(=O)O[C@H]2C[C@@H](C)C=C3C=C[C@H](C)[C@H](CC[C@@H](O)C[C@@H](O)CC(=O)O)[C@H]32)C(C)(C)C)cc1
- DC50 [34]: 120 nM

Compound: Cc1nc(CCC(=O)NCCOc2ccc(OCC(=O)N[C@H](C(=O)N3C[C@H](O)C[C@H]3C(=O)NCc3ccc(-c4scnc4C)cc3)C(C)(C)C)cc2)ccc1-c1cnc(NCc2c(F)ccc3c2CCO3)n2cnnc12
- Kd [4]: 1 nM
- pIC50 [5]: 8.1

Compound: Cc1ncsc1-c1ccc([C@H](C)NC(=O)[C@@H]2C[C@@H](O)CN2C(=O)[C@@H](NC(=O)CCCCOc2ccc(/C=N/NC(=O)c3ccc(C(=O)c4c(-c5ccc(O)cc5)sc5cc(O)ccc45)cc3)cc2)C(C)(C)C)cc1 (stereo in doubt)
- DC50 [17]: 10 nM
- Emax [18]: 95%

Compound: CCCS(=O)(=O)Nc1ccc(F)c(C(=O)c2c[nH]c3ncc(-c4ccc(N5CCN(CC(=O)N[C@H](C(=O)N6C[C@H](O)C[C@H]6C(=O)NCc6ccc(-c7scnc7C)cc6)C(C)(C)C)CC5)cc4)cc23)c1F
- IC50 [35]: 6.8 nM
- Emax [36]: > 95%

Compound: COC(=O)c1c(C)c(-c2ccc(-c3ccc(OCCOCCOCCOC(=O)N[C@H](C(=O)N4C[C@H](O)C[C@H]4C(=O)NCc4ccc(-c5scnc5C)cc4)C(C)(C)C)cc3)cc2)nc2ccc(F)cc12
- IC50 [9]: > 200000 nM
